Data on one compound can be found in patent US20130177904A1, “ARNT ISOFORM 3 AS A PREDICTOR OF AMINOFLAVONE RESPONSIVENESS IN CANCER CELLS” (UNIVERSITY OF MARYLAND, BALTIMORE, priority 2010, published 2013).

One assay has as its system caspases 3/7 in T47D. The assay is described as follows: Caspase Glo-3/7 Assay. The following applies: relative to vehicle treated cells, FIG. 2C. Format: cell-based, Human. As to the method:
(§1) The Caspase Glo-3/7 Assay (Promega) was used to measure the combined activities of caspases-3 and -7. In brief, cells were seeded in a white-walled 96-well plate (Nunc) at a density of 2,000 cells/well and allowed to attach overnight. AF was added the following day in final concentrations of 0.1 nM to 100 μM in replicas of 8. Caspase activity was measured 5 days later by adding the Caspase Glo-3/7 reagent to the plate and incubating for another 2 hours. Caspase cleavage results in the release a substrate for luciferase that was measured using a LumiCount luminometer (Packard). Caspase activity levels were normalized to the amount of viable cells, determined by the CellTiter-Glo Luminescent Cell Viability Assay (Promega) performed in parallel to the caspase assay. Data analysis to obtain the mean and standard error as well as graphing employed Excel® (Microsoft Corporation).

In assay [1] the test system is caspases 3/7 in MDA-MB-231. Put plainly: Caspase Glo-3/7 Assay. Format: cell-based, Human. The note with it: MDA-MB-231, relative to vehicle treated cells, FIG. 2C. The method, then: as §1
A further assay has as its system caspases 3/7 in MCF7. The assay is described as follows: Caspase Glo-3/7 Assay. Type of assay: cell-based, Human. The following applies: MCF7, relative to vehicle treated cells, FIG. 2C. The method, then:
as §1

Assay [2] deals with caspases 3/7 in MDA-MBA-468. The assay is described as follows: Caspase Glo-3/7 Assay. Format: cell-based, Human. The following applies: MDA-MBA-468, relative to vehicle treated cells, FIG. 2C. As to the method: as §1
A further assay relates to U251. The note with it: U251 CNS cancer cell line, NIH dose response data; cited from earlier work.
A further assay relates to K562. The following applies: K562 leukemia cell line, NIH dose response data; cited from earlier work.
The next assay concerns BT-549. The note with it: BT-549 breast cancer cell line, as determined by the NIH study; cited from earlier work.
In another assay the test system is SW620. The following applies: SW620 colon cell line, NIH dose response data; cited from earlier work.
The subject of a further assay is MDA-MBA-468. The assay is described as follows: Cell Death Detection ELISA PLUS apoptosis assay. Type of assay: cell-based, Human. The following applies: MDA-MBA-468, 48 hours post-AF treatment, 100 nM AF per legend FIG. 2A. The method, then:
(§2) To determine the induction of apoptosis, the Cell Death Detection ELISA^PLUS Assay (Roche Cat. No. 11774425001), which determines the degree of cytoplasmic mono- and oligonucleosomes, was employed as described by the manufacturer. […] Cells were then concentrated by centrifugation at 200 g for 10 min at room temperature and the supernatant was discarded. Cells were lysed, and cytoplasmic fractions containing fragmented DNA were transferred to streptavidin-coated microtiter plates preincubated with a biotinylated monoclonal anti-histone antibody. The amount of fragmented nucleosomes bound to anti-histone antibody was evaluated by peroxidase-conjugated monoclonal antibody using ABTS (2,2-azino-di[3-ethylbenzthiazoline sulfonate-6-diammonium salt]) as a substrate, and read in a microplate reader at 405 nm. Non-treated cells were employed as controls.

The test system of another assay is MCF7. The assay is described as follows: Cell Death Detection ELISA PLUS apoptosis assay. Type of assay: cell-based, Human. As to the method:
as §2
(An ELISA detects its analyte on a solid surface through an enzyme-linked reagent.)

For a further assay, the system named is T47D. Put plainly: Cell Death Detection ELISA PLUS apoptosis assay. Format: cell-based, Human. As to the method:
as §2

The subject of a further assay is A496. The following applies: A496 renal cell line, NIH dose response data; cited from earlier work.
For another assay, the system named is Hst578t. Put plainly: Cell Death Detection ELISA PLUS apoptosis assay. Type of assay: cell-based, Human. The note with it: 1 μM AF, Hst578t listed as AF insensitive, 24 h or 48 h, FIG. 2A. As to the method:
(§3) To determine the induction of apoptosis, the Cell Death Detection ELISA^PLUS Assay (Roche Cat. No. 11774425001), which determines the degree of cytoplasmic mono- and oligonucleosomes, was employed as described by the manufacturer. Briefly, breast cancer cells (5,000 cells for MCF-7; 2,000 cells for MDA-MB-231; 15,000 cells for T47D; 15,000 cells for MDA-MB-468; 5,000 cell for Hst578) were plated on 96 well plates and treated the next morning with or without or 1 uM AF for 24 h or 48 h. Cells were then concentrated by centrifugation at 200 g for 10 min at room temperature and the supernatant was discarded. Cells were lysed, and cytoplasmic fractions containing fragmented DNA were transferred to streptavidin-coated microtiter plates preincubated with a biotinylated monoclonal anti-histone antibody. The amount of fragmented nucleosomes bound to anti-histone antibody was evaluated by peroxidase-conjugated monoclonal antibody using ABTS (2,2-azino-di[3-ethylbenzthiazoline sulfonate-6-diammonium salt]) as a substrate, and read in a microplate reader at 405 nm. Non-treated cells were employed as controls.

A further assay concerns MDA-MB-231. Put plainly: Cell Death Detection ELISA PLUS apoptosis assay. Format: cell-based, Human. The note with it: 1 μM AF, MDA-MB-231, 24 h or 48 h, FIG. 2A. As to the method: as §3

For the compound `Cc1c(F)c(N)c2c(=O)cc(-c3ccc(N)c(F)c3)oc2c1F` [AF, 5-amino-2-(4-amino-3-fluorophenyl)-6,8-difluoro-7-methylchromen-4-one], the “induction of caspases 3/7 (combined activity)” value with caspases 3/7 in T47D was “marked induction”; in the assay on caspases 3/7 in MCF7, “not activated”; in assay [2], “marked induction”. Further, the “Caspases 3 and 7 activity” value in assay [1] is recorded as “do not”. Also, the AF sensitivity entry with U251 is “some degree of sensitivity”; with K562, “AF sensitive”; in the assay on BT-549, “AF in-sensitive”; in the assay with SW620, “AF sensitive”; in the assay with A496, “AF sensitive”. Further, the induction of apoptosis entry with MDA-MBA-468 is listed as “prominent induction of apoptosis”; in the assay with MCF7 (MCF7, 48 hours post-AF treatment, 100 nM AF per legend FIG. 2A), “prominent induction of apoptosis”; with T47D (48 hours post-AF treatment, 100 nM AF per legend FIG. 2A), “prominent induction of apoptosis”. Further, the “increase (cytoplasmic nucleosomes; printed as increase in inhibition of cell proliferation)” value is recorded as above 4.5 fold in the assay with MCF7 (1 μM AF, MCF7, FIG. 2A) and above 4.5 fold with T47D (1 μM AF, FIG. 2A). Besides, the “increase in cytoplasmic nucleosomes” value with Hst578t and with MDA-MB-231 was below 2 fold in each case.
